# Experimental data: US4542137A, “Alkylaminodesoxy-1.4;3.6-dianhydrohexitol nitrates substituted by purine bases and pharmaceutical compositions” (priority 1980, dated 1985)
# Test system: mongrel dogs
# Assay: circulatory pharmacological effectiveness on narcotised dogs, intravenous
# Format: in vivo, dog
# Conditions: dog i.v. ISDN/9c 1, 1d 0.5 mg/kg
compound,measurement,setting,value
"CN(CCCn1cnc2c1c(=O)n(C)c(=O)n2C)[C@H]1CO[C@H]2[C@@H]1OC[C@@H]2O[N+](=O)[O-] [Example 9c, 5-[N-Methyl-N-(3-theophyllin-7-ylpropyl)-amino]-5-desoxy-1.4;3.6-dianhydro-L-iditol 2-nitrate]",APdiast: diastolic aorta pressure,2 min,58.1 mm.Hg
same,APsyst: systolic aorta pressure,2 min,105.0 mm.Hg
same,BFFem: blood flow in the A. femoralis referred to 20 kg body weight,2 min,34.6 mL/min
same,HF: heart frequency,2 min,163.2
same,"HLL: heart capacity left, referred to 20 kg body weight",2 min,0.51 W
same,"HLR: heart capacity right, referred to 20 kg body weight",2 min,67.6 mW
same,"HZV: heart minute volume, referred to 20 kg body weight",2 min,3.15 L/min
same,LVEDP: end diastolic pressure in the left ventricle,2 min,3.60 mm.Hg
same,"SV: beat volume, referred to 20 kg body weight",2 min,20.0 mL
same,"WAP: pulmonalis resistance, referred to 20 kg body weight",2 min,0.30 U
same,"WFem: moralis resistance, referred to 20 kg body weight",2 min,0.33 KU
same,"WTP: total peripheral resistance, referred to 20 kg body weight",2 min,3.07 U
same,dp/dt: rate of pressure increase in the left ventricle,2 min,3045.0 mm.Hg/sec
same,APdiast: diastolic aorta pressure,5 min,79.7 mm.Hg
same,APsyst: systolic aorta pressure,5 min,126.6 mm.Hg
same,BFFem: blood flow in the A. femoralis referred to 20 kg body weight,5 min,39.1 mL/min
same,HF: heart frequency,5 min,129.7
same,"HLL: heart capacity left, referred to 20 kg body weight",5 min,0.56 W
same,"HLR: heart capacity right, referred to 20 kg body weight",5 min,66.9 mW
same,"HZV: heart minute volume, referred to 20 kg body weight",5 min,2.73 L/min
same,LVEDP: end diastolic pressure in the left ventricle,5 min,4.64 mm.Hg
same,"SV: beat volume, referred to 20 kg body weight",5 min,21.1 mL
same,"WAP: pulmonalis resistance, referred to 20 kg body weight",5 min,0.33 U
same,"WFem: moralis resistance, referred to 20 kg body weight",5 min,0.37 KU
same,dp/dt: rate of pressure increase in the left ventricle,5 min,2287.5 mm.Hg/sec
same,APdiast: diastolic aorta pressure,7 min,82.5 mm.Hg
same,APsyst: systolic aorta pressure,7 min,129.4 mm.Hg
same,BFFem: blood flow in the A. femoralis referred to 20 kg body weight,7 min,42.5 mL/min
same,HF: heart frequency,7 min,123.2
same,"HLL: heart capacity left, referred to 20 kg body weight",7 min,0.58 W
same,"HLR: heart capacity right, referred to 20 kg body weight",7 min,64.2 mW
same,"HZV: heart minute volume, referred to 20 kg body weight",7 min,2.75 L/min
same,LVEDP: end diastolic pressure in the left ventricle,7 min,4.92 mm.Hg
same,"SV: beat volume, referred to 20 kg body weight",7 min,22.4 mL
same,"WFem: moralis resistance, referred to 20 kg body weight",7 min,0.34 KU
same,"WTP: total peripheral resistance, referred to 20 kg body weight",7 min,4.77 U
same,dp/dt: rate of pressure increase in the left ventricle,7 min,2325.0 mm.Hg/sec
same,APdiast: diastolic aorta pressure,10 min,81.6 mm.Hg
same,APsyst: systolic aorta pressure,10 min,127.5 mm.Hg
same,HF: heart frequency,10 min,120.5
same,"HLL: heart capacity left, referred to 20 kg body weight",10 min,0.57 W
same,"HLR: heart capacity right, referred to 20 kg body weight",10 min,68.8 mW
same,"HZV: heart minute volume, referred to 20 kg body weight",10 min,2.76 L/min
same,LVEDP: end diastolic pressure in the left ventricle,10 min,4.92 mm.Hg
same,"SV: beat volume, referred to 20 kg body weight",10 min,23.0 mL
same,"WAP: pulmonalis resistance, referred to 20 kg body weight",10 min,0.32 U
same,"WFem: moralis resistance, referred to 20 kg body weight",10 min,0.32 KU
same,"WTP: total peripheral resistance, referred to 20 kg body weight",10 min,4.68 U
same,APdiast: diastolic aorta pressure,15 min,81.6 mm.Hg
same,APsyst: systolic aorta pressure,15 min,128.4 mm.Hg
same,BFFem: blood flow in the A. femoralis referred to 20 kg body weight,15 min,43.4 mL/min
same,HF: heart frequency,15 min,115.2
same,"HLL: heart capacity left, referred to 20 kg body weight",15 min,0.57 W
same,"HLR: heart capacity right, referred to 20 kg body weight",15 min,63.6 mW
same,"HZV: heart minute volume, referred to 20 kg body weight",15 min,2.77 L/min
same,LVEDP: end diastolic pressure in the left ventricle,15 min,5.20 mm.Hg
same,"SV: beat volume, referred to 20 kg body weight",15 min,24.2 mL
same,"WAP: pulmonalis resistance, referred to 20 kg body weight",15 min,0.30 U
same,"WFem: moralis resistance, referred to 20 kg body weight",15 min,0.31 KU
same,"WTP: total peripheral resistance, referred to 20 kg body weight",15 min,4.65 U
same,dp/dt: rate of pressure increase in the left ventricle,15 min,2250.0 mm.Hg/sec
same,APdiast: diastolic aorta pressure,20 min,82.5 mm.Hg
same,APsyst: systolic aorta pressure,20 min,128.4 mm.Hg
same,BFFem: blood flow in the A. femoralis referred to 20 kg body weight,20 min,44.2 mL/min
same,HF: heart frequency,20 min,114.5
same,"HLL: heart capacity left, referred to 20 kg body weight",20 min,0.55 W
same,"HLR: heart capacity right, referred to 20 kg body weight",20 min,63.1 mW
same,"HZV: heart minute volume, referred to 20 kg body weight",20 min,2.65 L/min
same,LVEDP: end diastolic pressure in the left ventricle,20 min,5.48 mm.Hg
same,"SV: beat volume, referred to 20 kg body weight",20 min,23.3 mL
same,"WAP: pulmonalis resistance, referred to 20 kg body weight",20 min,0.30 U
same,"WFem: moralis resistance, referred to 20 kg body weight",20 min,0.31 KU
same,"WTP: total peripheral resistance, referred to 20 kg body weight",20 min,4.90 U
same,dp/dt: rate of pressure increase in the left ventricle,20 min,2221.9 mm.Hg/sec
same,APdiast: diastolic aorta pressure,25 min,83.4 mm.Hg
same,APsyst: systolic aorta pressure,25 min,131.2 mm.Hg
same,BFFem: blood flow in the A. femoralis referred to 20 kg body weight,25 min,41.3 mL/min
same,"HLL: heart capacity left, referred to 20 kg body weight",25 min,0.56 W
same,"HLR: heart capacity right, referred to 20 kg body weight",25 min,60.5 mW
same,"HZV: heart minute volume, referred to 20 kg body weight",25 min,2.65 L/min
same,LVEDP: end diastolic pressure in the left ventricle,25 min,5.62 mm.Hg
same,"SV: beat volume, referred to 20 kg body weight",25 min,23.7 mL
same,"WAP: pulmonalis resistance, referred to 20 kg body weight",25 min,0.27 U
same,"WFem: moralis resistance, referred to 20 kg body weight",25 min,0.33 KU
same,"WTP: total peripheral resistance, referred to 20 kg body weight",25 min,5.00 U
same,dp/dt: rate of pressure increase in the left ventricle,25 min,2221.9 mm.Hg/sec
same,APdiast: diastolic aorta pressure,30 min,81.6 mm.Hg
same,APsyst: systolic aorta pressure,30 min,134.1 mm.Hg
same,BFFem: blood flow in the A. femoralis referred to 20 kg body weight,30 min,44.2 mL/min
same,HF: heart frequency,30 min,111.5
same,"HLL: heart capacity left, referred to 20 kg body weight",30 min,0.57 W
same,"HLR: heart capacity right, referred to 20 kg body weight",30 min,60.5 mW
same,"HZV: heart minute volume, referred to 20 kg body weight",30 min,2.68 L/min
same,LVEDP: end diastolic pressure in the left ventricle,30 min,5.62 mm.Hg
same,"SV: beat volume, referred to 20 kg body weight",30 min,24.2 mL
same,"WFem: moralis resistance, referred to 20 kg body weight",30 min,0.31 KU
same,"WTP: total peripheral resistance, referred to 20 kg body weight",30 min,4.87 U
same,dp/dt: rate of pressure increase in the left ventricle,30 min,2221.9 mm.Hg/sec
same,APdiast: diastolic aorta pressure,40 min,86.2 mm.Hg
same,APsyst: systolic aorta pressure,40 min,136.9 mm.Hg
